#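 Briefly, cells in 96-well plates were exposed to five compound concentrations for 48 h, and endpoints were estimated by linear interpolation. Definition used: TGI = concentration required for complete inhibition of growth.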
# Test system: 786-0 renal
# Experiment: DTP human tumour cell line panel, 48 h
row,Compound,TGI
1,CNc1nc2n(CCO)c(-c3ccccc3)c(-c3ccccc3)nc-2c(=O)n1,> 50 µM
2,NC(CCC(=O)O)C(=O)N1CCN(c2nc(N3CCCC3)c3nc(Cl)c(NCc4ccccc4)nc3n2)CC1 (stereo not given),25.9 µM
3,CN1C2CCC1CC(CCNC(c1ccccc1)c1ccccc1)C2 (stereo not given),41.4 µM
4,CC1ON2CCCC2[C@H]1C(=O)N1C2CC3CCC2(CS1(=O)=O)C3(C)C (stereo not given in full),> 100 µM
5,O=C1O/C(=C(/Br)c2ccc(Cl)c(Cl)c2)c2ccccc21,> 10 µM
6,CN(C)/C=N/S(=O)(=O)c1nn2c(C=O)c(-c3ccc(Cl)cc3)nc2s1,2.5 µM
7,COc1ccc(C2=Nn3c(nnc(Cc4ccc(Cl)cc4)c3=O)SC2)cc1,> 100 µM
8,COC1(OC)CC(CO)(CNc2nc(N)nc(Cl)c2/C=N\O)C1,> 100 µM
9,O=C1CCCC2(c3ccccc3)Nc3ccccc3N12 (stereo not given),> 100 µM
10,Cc1ccc(/C=C2\CCC/C(=C\c3ccc(O)c(CN4CCCCC4)c3)C2=O)cc1,14.3 µM
11,COC(=O)CCc1cc(O)c2c(c1)C(C(=O)OC)C(c1ccc(O)c(O)c1)O2 (stereo not given),> 100 µM
12,Cc1ccc2c(c1)C1(C)OC(C=CC1=O)O2 (stereo not given),0.822 µM

# Test system: A549 NSCLC
# Experiment: DTP human tumour cell line panel, 48 h
row,Compound,TGI
1,CNc1nc2n(CCO)c(-c3ccccc3)c(-c3ccccc3)nc-2c(=O)n1,> 50 µM
2,NC(CCC(=O)O)C(=O)N1CCN(c2nc(N3CCCC3)c3nc(Cl)c(NCc4ccccc4)nc3n2)CC1 (stereo not given),26.1 µM
3,CN1C2CCC1CC(CCNC(c1ccccc1)c1ccccc1)C2 (stereo not given),> 100 µM
4,CC1ON2CCCC2[C@H]1C(=O)N1C2CC3CCC2(CS1(=O)=O)C3(C)C (stereo not given in full),> 100 µM
5,O=C1O/C(=C(/Br)c2ccc(Cl)c(Cl)c2)c2ccccc21,> 10 µM
6,CN(C)/C=N/S(=O)(=O)c1nn2c(C=O)c(-c3ccc(Cl)cc3)nc2s1,20.2 µM
7,COc1ccc(C2=Nn3c(nnc(Cc4ccc(Cl)cc4)c3=O)SC2)cc1,> 100 µM
8,COC1(OC)CC(CO)(CNc2nc(N)nc(Cl)c2/C=N\O)C1,> 100 µM
9,O=C1CCCC2(c3ccccc3)Nc3ccccc3N12 (stereo not given),> 100 µM
10,Cc1ccc(/C=C2\CCC/C(=C\c3ccc(O)c(CN4CCCCC4)c3)C2=O)cc1,> 49.3 µM
11,COC(=O)CCc1cc(O)c2c(c1)C(C(=O)OC)C(c1ccc(O)c(O)c1)O2 (stereo not given),> 100 µM
12,Cc1ccc2c(c1)C1(C)OC(C=CC1=O)O2 (stereo not given),10.1 µM

# Test system: ACHN renal
# Experiment: DTP human tumour cell line panel, 48 h
row,Compound,TGI
1,CNc1nc2n(CCO)c(-c3ccccc3)c(-c3ccccc3)nc-2c(=O)n1,> 50 µM
2,NC(CCC(=O)O)C(=O)N1CCN(c2nc(N3CCCC3)c3nc(Cl)c(NCc4ccccc4)nc3n2)CC1 (stereo not given),28.8 µM
3,CN1C2CCC1CC(CCNC(c1ccccc1)c1ccccc1)C2 (stereo not given),> 100 µM
4,CC1ON2CCCC2[C@H]1C(=O)N1C2CC3CCC2(CS1(=O)=O)C3(C)C (stereo not given in full),> 100 µM
5,O=C1O/C(=C(/Br)c2ccc(Cl)c(Cl)c2)c2ccccc21,> 10 µM
6,CN(C)/C=N/S(=O)(=O)c1nn2c(C=O)c(-c3ccc(Cl)cc3)nc2s1,2.36 µM
7,COc1ccc(C2=Nn3c(nnc(Cc4ccc(Cl)cc4)c3=O)SC2)cc1,> 100 µM
8,COC1(OC)CC(CO)(CNc2nc(N)nc(Cl)c2/C=N\O)C1,> 100 µM
9,O=C1CCCC2(c3ccccc3)Nc3ccccc3N12 (stereo not given),> 100 µM
10,Cc1ccc(/C=C2\CCC/C(=C\c3ccc(O)c(CN4CCCCC4)c3)C2=O)cc1,18.6 µM
11,COC(=O)CCc1cc(O)c2c(c1)C(C(=O)OC)C(c1ccc(O)c(O)c1)O2 (stereo not given),> 100 µM
12,Cc1ccc2c(c1)C1(C)OC(C=CC1=O)O2 (stereo not given),1.73 µM

# Test system: CAKI-1 renal
# Experiment: DTP human tumour cell line panel, 48 h
row,Compound,TGI
1,CNc1nc2n(CCO)c(-c3ccccc3)c(-c3ccccc3)nc-2c(=O)n1,> 50 µM
2,NC(CCC(=O)O)C(=O)N1CCN(c2nc(N3CCCC3)c3nc(Cl)c(NCc4ccccc4)nc3n2)CC1 (stereo not given),39.6 µM
3,CN1C2CCC1CC(CCNC(c1ccccc1)c1ccccc1)C2 (stereo not given),> 100 µM
4,CC1ON2CCCC2[C@H]1C(=O)N1C2CC3CCC2(CS1(=O)=O)C3(C)C (stereo not given in full),> 100 µM
5,O=C1O/C(=C(/Br)c2ccc(Cl)c(Cl)c2)c2ccccc21,> 10 µM
6,CN(C)/C=N/S(=O)(=O)c1nn2c(C=O)c(-c3ccc(Cl)cc3)nc2s1,2.58 µM
7,COc1ccc(C2=Nn3c(nnc(Cc4ccc(Cl)cc4)c3=O)SC2)cc1,> 100 µM
8,COC1(OC)CC(CO)(CNc2nc(N)nc(Cl)c2/C=N\O)C1,> 100 µM
9,O=C1CCCC2(c3ccccc3)Nc3ccccc3N12 (stereo not given),> 100 µM
10,Cc1ccc(/C=C2\CCC/C(=C\c3ccc(O)c(CN4CCCCC4)c3)C2=O)cc1,33 µM
11,COC(=O)CCc1cc(O)c2c(c1)C(C(=O)OC)C(c1ccc(O)c(O)c1)O2 (stereo not given),> 100 µM
12,Cc1ccc2c(c1)C1(C)OC(C=CC1=O)O2 (stereo not given),1.49 µM

# Test system: HCT-116 colon
# Experiment: DTP human tumour cell line panel, 48 h
row,Compound,TGI
1,CNc1nc2n(CCO)c(-c3ccccc3)c(-c3ccccc3)nc-2c(=O)n1,> 50 µM
2,NC(CCC(=O)O)C(=O)N1CCN(c2nc(N3CCCC3)c3nc(Cl)c(NCc4ccccc4)nc3n2)CC1 (stereo not given),28.4 µM
3,CN1C2CCC1CC(CCNC(c1ccccc1)c1ccccc1)C2 (stereo not given),> 100 µM
4,CC1ON2CCCC2[C@H]1C(=O)N1C2CC3CCC2(CS1(=O)=O)C3(C)C (stereo not given in full),> 100 µM
5,O=C1O/C(=C(/Br)c2ccc(Cl)c(Cl)c2)c2ccccc21,> 10 µM
6,CN(C)/C=N/S(=O)(=O)c1nn2c(C=O)c(-c3ccc(Cl)cc3)nc2s1,2.18 µM
7,COc1ccc(C2=Nn3c(nnc(Cc4ccc(Cl)cc4)c3=O)SC2)cc1,> 100 µM
8,COC1(OC)CC(CO)(CNc2nc(N)nc(Cl)c2/C=N\O)C1,> 100 µM
9,O=C1CCCC2(c3ccccc3)Nc3ccccc3N12 (stereo not given),> 100 µM
10,Cc1ccc(/C=C2\CCC/C(=C\c3ccc(O)c(CN4CCCCC4)c3)C2=O)cc1,7.65 µM
11,COC(=O)CCc1cc(O)c2c(c1)C(C(=O)OC)C(c1ccc(O)c(O)c1)O2 (stereo not given),> 100 µM
12,Cc1ccc2c(c1)C1(C)OC(C=CC1=O)O2 (stereo not given),0.652 µM

# Test system: HCT-15 colon
# Experiment: DTP human tumour cell line panel, 48 h
row,Compound,TGI
1,CNc1nc2n(CCO)c(-c3ccccc3)c(-c3ccccc3)nc-2c(=O)n1,> 50 µM
2,NC(CCC(=O)O)C(=O)N1CCN(c2nc(N3CCCC3)c3nc(Cl)c(NCc4ccccc4)nc3n2)CC1 (stereo not given),31 µM
3,CN1C2CCC1CC(CCNC(c1ccccc1)c1ccccc1)C2 (stereo not given),> 100 µM
4,CC1ON2CCCC2[C@H]1C(=O)N1C2CC3CCC2(CS1(=O)=O)C3(C)C (stereo not given in full),> 100 µM
5,O=C1O/C(=C(/Br)c2ccc(Cl)c(Cl)c2)c2ccccc21,> 10 µM
6,CN(C)/C=N/S(=O)(=O)c1nn2c(C=O)c(-c3ccc(Cl)cc3)nc2s1,5.63 µM
7,COc1ccc(C2=Nn3c(nnc(Cc4ccc(Cl)cc4)c3=O)SC2)cc1,> 100 µM
8,COC1(OC)CC(CO)(CNc2nc(N)nc(Cl)c2/C=N\O)C1,> 100 µM
9,O=C1CCCC2(c3ccccc3)Nc3ccccc3N12 (stereo not given),> 100 µM
10,Cc1ccc(/C=C2\CCC/C(=C\c3ccc(O)c(CN4CCCCC4)c3)C2=O)cc1,18.3 µM
11,COC(=O)CCc1cc(O)c2c(c1)C(C(=O)OC)C(c1ccc(O)c(O)c1)O2 (stereo not given),> 100 µM
12,Cc1ccc2c(c1)C1(C)OC(C=CC1=O)O2 (stereo not given),0.772 µM

# Test system: HOP-92 NSCLC
# Experiment: DTP human tumour cell line panel, 48 h
row,Compound,TGI
1,CNc1nc2n(CCO)c(-c3ccccc3)c(-c3ccccc3)nc-2c(=O)n1,> 50 µM
2,NC(CCC(=O)O)C(=O)N1CCN(c2nc(N3CCCC3)c3nc(Cl)c(NCc4ccccc4)nc3n2)CC1 (stereo not given),32.2 µM
3,CN1C2CCC1CC(CCNC(c1ccccc1)c1ccccc1)C2 (stereo not given),43.2 µM
4,CC1ON2CCCC2[C@H]1C(=O)N1C2CC3CCC2(CS1(=O)=O)C3(C)C (stereo not given in full),> 100 µM
5,O=C1O/C(=C(/Br)c2ccc(Cl)c(Cl)c2)c2ccccc21,> 10 µM
6,CN(C)/C=N/S(=O)(=O)c1nn2c(C=O)c(-c3ccc(Cl)cc3)nc2s1,7.17 µM
7,COc1ccc(C2=Nn3c(nnc(Cc4ccc(Cl)cc4)c3=O)SC2)cc1,> 100 µM
8,COC1(OC)CC(CO)(CNc2nc(N)nc(Cl)c2/C=N\O)C1,89.2 µM
9,O=C1CCCC2(c3ccccc3)Nc3ccccc3N12 (stereo not given),> 100 µM
10,Cc1ccc(/C=C2\CCC/C(=C\c3ccc(O)c(CN4CCCCC4)c3)C2=O)cc1,25.2 µM
11,COC(=O)CCc1cc(O)c2c(c1)C(C(=O)OC)C(c1ccc(O)c(O)c1)O2 (stereo not given),> 100 µM
12,Cc1ccc2c(c1)C1(C)OC(C=CC1=O)O2 (stereo not given),1.48 µM

# Test system: HS 578T breast
# Experiment: DTP human tumour cell line panel, 48 h
row,Compound,TGI
1,CNc1nc2n(CCO)c(-c3ccccc3)c(-c3ccccc3)nc-2c(=O)n1,> 50 µM
2,NC(CCC(=O)O)C(=O)N1CCN(c2nc(N3CCCC3)c3nc(Cl)c(NCc4ccccc4)nc3n2)CC1 (stereo not given),60.2 µM
3,CN1C2CCC1CC(CCNC(c1ccccc1)c1ccccc1)C2 (stereo not given),> 100 µM
4,CC1ON2CCCC2[C@H]1C(=O)N1C2CC3CCC2(CS1(=O)=O)C3(C)C (stereo not given in full),> 100 µM
5,O=C1O/C(=C(/Br)c2ccc(Cl)c(Cl)c2)c2ccccc21,> 10 µM
6,CN(C)/C=N/S(=O)(=O)c1nn2c(C=O)c(-c3ccc(Cl)cc3)nc2s1,> 22 µM
7,COc1ccc(C2=Nn3c(nnc(Cc4ccc(Cl)cc4)c3=O)SC2)cc1,> 100 µM
8,COC1(OC)CC(CO)(CNc2nc(N)nc(Cl)c2/C=N\O)C1,> 100 µM
9,O=C1CCCC2(c3ccccc3)Nc3ccccc3N12 (stereo not given),> 100 µM
10,Cc1ccc(/C=C2\CCC/C(=C\c3ccc(O)c(CN4CCCCC4)c3)C2=O)cc1,38.5 µM
11,COC(=O)CCc1cc(O)c2c(c1)C(C(=O)OC)C(c1ccc(O)c(O)c1)O2 (stereo not given),> 95.9 µM
12,Cc1ccc2c(c1)C1(C)OC(C=CC1=O)O2 (stereo not given),> 26.6 µM

# Test system: K-562 leukemia
# Experiment: DTP human tumour cell line panel, 48 h
row,Compound,TGI
1,CNc1nc2n(CCO)c(-c3ccccc3)c(-c3ccccc3)nc-2c(=O)n1,> 50 µM
2,NC(CCC(=O)O)C(=O)N1CCN(c2nc(N3CCCC3)c3nc(Cl)c(NCc4ccccc4)nc3n2)CC1 (stereo not given),35.7 µM
3,CN1C2CCC1CC(CCNC(c1ccccc1)c1ccccc1)C2 (stereo not given),27.4 µM
4,CC1ON2CCCC2[C@H]1C(=O)N1C2CC3CCC2(CS1(=O)=O)C3(C)C (stereo not given in full),> 100 µM
5,O=C1O/C(=C(/Br)c2ccc(Cl)c(Cl)c2)c2ccccc21,> 10 µM
6,CN(C)/C=N/S(=O)(=O)c1nn2c(C=O)c(-c3ccc(Cl)cc3)nc2s1,3.04 µM
7,COc1ccc(C2=Nn3c(nnc(Cc4ccc(Cl)cc4)c3=O)SC2)cc1,> 100 µM
8,COC1(OC)CC(CO)(CNc2nc(N)nc(Cl)c2/C=N\O)C1,> 100 µM
9,O=C1CCCC2(c3ccccc3)Nc3ccccc3N12 (stereo not given),> 100 µM
10,Cc1ccc(/C=C2\CCC/C(=C\c3ccc(O)c(CN4CCCCC4)c3)C2=O)cc1,> 38.3 µM
11,COC(=O)CCc1cc(O)c2c(c1)C(C(=O)OC)C(c1ccc(O)c(O)c1)O2 (stereo not given),10.6 µM
12,Cc1ccc2c(c1)C1(C)OC(C=CC1=O)O2 (stereo not given),0.902 µM

# Test system: KM12 colon
# Experiment: DTP human tumour cell line panel, 48 h
row,Compound,TGI
1,CNc1nc2n(CCO)c(-c3ccccc3)c(-c3ccccc3)nc-2c(=O)n1,> 50 µM
2,NC(CCC(=O)O)C(=O)N1CCN(c2nc(N3CCCC3)c3nc(Cl)c(NCc4ccccc4)nc3n2)CC1 (stereo not given),40.3 µM
3,CN1C2CCC1CC(CCNC(c1ccccc1)c1ccccc1)C2 (stereo not given),> 100 µM
4,CC1ON2CCCC2[C@H]1C(=O)N1C2CC3CCC2(CS1(=O)=O)C3(C)C (stereo not given in full),> 100 µM
5,O=C1O/C(=C(/Br)c2ccc(Cl)c(Cl)c2)c2ccccc21,> 10 µM
6,CN(C)/C=N/S(=O)(=O)c1nn2c(C=O)c(-c3ccc(Cl)cc3)nc2s1,17.6 µM
7,COc1ccc(C2=Nn3c(nnc(Cc4ccc(Cl)cc4)c3=O)SC2)cc1,> 100 µM
8,COC1(OC)CC(CO)(CNc2nc(N)nc(Cl)c2/C=N\O)C1,24.4 µM
9,O=C1CCCC2(c3ccccc3)Nc3ccccc3N12 (stereo not given),> 100 µM
10,Cc1ccc(/C=C2\CCC/C(=C\c3ccc(O)c(CN4CCCCC4)c3)C2=O)cc1,8.33 µM
11,COC(=O)CCc1cc(O)c2c(c1)C(C(=O)OC)C(c1ccc(O)c(O)c1)O2 (stereo not given),> 46.5 µM
12,Cc1ccc2c(c1)C1(C)OC(C=CC1=O)O2 (stereo not given),2.14 µM

# — PubChem BioAssay (NCI)
